B1: SSI: streptomyces subtilisin inhibitor (protein, UniProt P01006 32-144, looked up)
Subtilisin inhibitor: DAPSALYAPSALVLTVGKGVSATTAAPERAVTLTCAPGPSGTHPAAGSACADLAAVGGDLNALTRGEDVMCPMVYDPVLLTVDGVWQGKRVSYERVFSNECEMNAHGSSVFAF

Tested on: F. arborescens protease
Format: biochemical, Flavobacterium arborescens

Molecule	Activity of protease in presence of inhibitor [units]	Effect of inhibitor on protease activity (in words)
O=S(=O)(F)Cc1ccccc1 [PMSF, phenylmethyl sulfonyl fluoride]	1.9	no effect
O=C(O)CN(CCN(CC(=O)O)CC(=O)O)CC(=O)O [EDTA, ethylenediamine tetraacetate]	4.1	
CCN1C(=O)C=CC1=O [NEM, N--ethyl maleimide]	2.0	
B1	1.6	strongly inhibited

Source: patent US4429044A, “Preparation of an alkaline protease from flavobacterium arborescens” (Miles Laboratories, Inc., priority 1982, dated 1984)
